Where two headings read alike, the source gives them in different places.
Assays:
Type in all cases: cell-based
[1] = molecular target: Human Cav 2.2 channels (Homo sapiens, UniProt Q00975); assay: Fluorescent assay for CaV2.2 channels using potassium depolarization (VIPR/FLIPR); settings: FLIPR data; for CAv2.2 IC50 Ratio closed/inact.: ratio closed/inactivated IC50
Outline: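 Fluo-4 calcium fluorescence (480/535 nm) was recorded on VIPR or FLIPR after depolarization to 70 mM final potassium. Before this, cells were preincubated 30 min at 25 °C with compound in 4–30 mM potassium, so that state-dependent block could be assessed; the cells were HEK293 coexpressing Cav2.2, α2δ, β and Kir2.3.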

[2] = molecular target: T-type calcium channel (Homo sapiens, UniProt O43497); assay: T-type channel blocking, FLIPR data (Table 6); settings: CAv3.1
Chain of T-type calcium channel (Homo sapiens, UniProt O43497) (O43497 whole entry): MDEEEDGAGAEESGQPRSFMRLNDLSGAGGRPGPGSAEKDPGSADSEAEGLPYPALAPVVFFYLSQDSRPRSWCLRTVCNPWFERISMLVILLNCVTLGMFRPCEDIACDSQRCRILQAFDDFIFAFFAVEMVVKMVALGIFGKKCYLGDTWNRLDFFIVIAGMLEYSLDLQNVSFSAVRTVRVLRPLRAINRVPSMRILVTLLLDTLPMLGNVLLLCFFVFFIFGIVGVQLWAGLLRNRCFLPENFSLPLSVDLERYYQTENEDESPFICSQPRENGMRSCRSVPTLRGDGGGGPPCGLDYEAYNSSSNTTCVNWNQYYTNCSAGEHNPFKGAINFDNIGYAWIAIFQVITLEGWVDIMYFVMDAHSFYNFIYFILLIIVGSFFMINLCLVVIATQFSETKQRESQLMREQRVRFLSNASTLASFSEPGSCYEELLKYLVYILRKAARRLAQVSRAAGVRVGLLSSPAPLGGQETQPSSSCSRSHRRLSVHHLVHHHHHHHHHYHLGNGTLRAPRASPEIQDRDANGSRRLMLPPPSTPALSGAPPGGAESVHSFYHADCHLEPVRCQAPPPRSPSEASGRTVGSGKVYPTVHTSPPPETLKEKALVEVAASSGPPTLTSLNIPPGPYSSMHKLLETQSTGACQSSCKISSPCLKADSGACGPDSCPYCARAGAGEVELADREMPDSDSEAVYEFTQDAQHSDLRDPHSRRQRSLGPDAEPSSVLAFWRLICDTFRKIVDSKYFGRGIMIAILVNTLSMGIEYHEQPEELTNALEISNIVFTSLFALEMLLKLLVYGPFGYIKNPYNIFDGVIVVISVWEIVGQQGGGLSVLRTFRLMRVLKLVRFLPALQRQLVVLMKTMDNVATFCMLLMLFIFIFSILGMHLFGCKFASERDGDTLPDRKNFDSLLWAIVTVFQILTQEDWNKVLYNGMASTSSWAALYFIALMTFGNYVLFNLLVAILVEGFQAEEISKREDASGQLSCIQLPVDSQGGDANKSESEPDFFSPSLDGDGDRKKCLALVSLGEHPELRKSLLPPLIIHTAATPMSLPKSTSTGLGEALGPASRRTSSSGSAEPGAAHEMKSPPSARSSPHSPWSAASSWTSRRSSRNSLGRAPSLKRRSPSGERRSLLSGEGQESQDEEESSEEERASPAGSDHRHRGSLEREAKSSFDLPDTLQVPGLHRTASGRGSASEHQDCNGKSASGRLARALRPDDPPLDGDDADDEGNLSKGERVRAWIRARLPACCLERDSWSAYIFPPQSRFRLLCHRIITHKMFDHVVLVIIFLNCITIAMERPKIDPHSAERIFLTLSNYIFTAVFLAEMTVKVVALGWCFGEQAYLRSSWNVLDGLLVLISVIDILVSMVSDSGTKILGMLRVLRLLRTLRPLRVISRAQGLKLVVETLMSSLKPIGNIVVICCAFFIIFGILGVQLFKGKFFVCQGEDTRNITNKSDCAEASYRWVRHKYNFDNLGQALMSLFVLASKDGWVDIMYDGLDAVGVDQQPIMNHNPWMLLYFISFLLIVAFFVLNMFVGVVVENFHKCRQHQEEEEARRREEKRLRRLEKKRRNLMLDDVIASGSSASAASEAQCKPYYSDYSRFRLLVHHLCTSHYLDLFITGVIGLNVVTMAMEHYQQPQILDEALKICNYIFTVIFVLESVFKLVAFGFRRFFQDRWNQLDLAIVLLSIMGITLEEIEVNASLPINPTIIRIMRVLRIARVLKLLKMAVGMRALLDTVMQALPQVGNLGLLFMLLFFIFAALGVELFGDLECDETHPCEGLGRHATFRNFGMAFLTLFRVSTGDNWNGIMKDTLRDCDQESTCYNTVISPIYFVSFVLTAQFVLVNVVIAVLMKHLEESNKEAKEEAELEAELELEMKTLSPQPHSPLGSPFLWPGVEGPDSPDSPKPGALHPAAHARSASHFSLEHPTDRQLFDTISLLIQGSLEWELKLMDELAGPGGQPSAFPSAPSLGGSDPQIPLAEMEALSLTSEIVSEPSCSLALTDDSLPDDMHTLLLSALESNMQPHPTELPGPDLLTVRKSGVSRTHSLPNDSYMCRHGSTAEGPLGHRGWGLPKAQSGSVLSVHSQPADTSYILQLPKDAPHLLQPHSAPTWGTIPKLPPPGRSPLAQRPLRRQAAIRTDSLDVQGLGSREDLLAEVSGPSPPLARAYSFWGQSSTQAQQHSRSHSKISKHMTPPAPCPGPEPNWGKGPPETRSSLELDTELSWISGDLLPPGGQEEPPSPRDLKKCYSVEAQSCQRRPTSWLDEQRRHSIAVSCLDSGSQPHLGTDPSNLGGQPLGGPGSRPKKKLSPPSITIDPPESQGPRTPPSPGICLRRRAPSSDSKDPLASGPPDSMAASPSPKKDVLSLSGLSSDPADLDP
Description: (§1) Another method, high-throughput spectrophotometric assay, utilizes loading of the cell lines with a fluorescent dye sensitive to intracellular calcium concentration and subsequent examination of the effects of compounds on the ability of depolarization by potassium chloride or other means to alter intracellular calcium levels.

[3] = molecular target: T-type calcium channel (Homo sapiens, UniProt O95180); assay: T-type channel blocking, FLIPR data (Table 6); settings: for CAv3.2 IC50 Ratio closed/inact.: CAv3.2, ratio closed/inactivated IC50
Chain of T-type calcium channel (Homo sapiens, UniProt O95180) (O95180 whole entry): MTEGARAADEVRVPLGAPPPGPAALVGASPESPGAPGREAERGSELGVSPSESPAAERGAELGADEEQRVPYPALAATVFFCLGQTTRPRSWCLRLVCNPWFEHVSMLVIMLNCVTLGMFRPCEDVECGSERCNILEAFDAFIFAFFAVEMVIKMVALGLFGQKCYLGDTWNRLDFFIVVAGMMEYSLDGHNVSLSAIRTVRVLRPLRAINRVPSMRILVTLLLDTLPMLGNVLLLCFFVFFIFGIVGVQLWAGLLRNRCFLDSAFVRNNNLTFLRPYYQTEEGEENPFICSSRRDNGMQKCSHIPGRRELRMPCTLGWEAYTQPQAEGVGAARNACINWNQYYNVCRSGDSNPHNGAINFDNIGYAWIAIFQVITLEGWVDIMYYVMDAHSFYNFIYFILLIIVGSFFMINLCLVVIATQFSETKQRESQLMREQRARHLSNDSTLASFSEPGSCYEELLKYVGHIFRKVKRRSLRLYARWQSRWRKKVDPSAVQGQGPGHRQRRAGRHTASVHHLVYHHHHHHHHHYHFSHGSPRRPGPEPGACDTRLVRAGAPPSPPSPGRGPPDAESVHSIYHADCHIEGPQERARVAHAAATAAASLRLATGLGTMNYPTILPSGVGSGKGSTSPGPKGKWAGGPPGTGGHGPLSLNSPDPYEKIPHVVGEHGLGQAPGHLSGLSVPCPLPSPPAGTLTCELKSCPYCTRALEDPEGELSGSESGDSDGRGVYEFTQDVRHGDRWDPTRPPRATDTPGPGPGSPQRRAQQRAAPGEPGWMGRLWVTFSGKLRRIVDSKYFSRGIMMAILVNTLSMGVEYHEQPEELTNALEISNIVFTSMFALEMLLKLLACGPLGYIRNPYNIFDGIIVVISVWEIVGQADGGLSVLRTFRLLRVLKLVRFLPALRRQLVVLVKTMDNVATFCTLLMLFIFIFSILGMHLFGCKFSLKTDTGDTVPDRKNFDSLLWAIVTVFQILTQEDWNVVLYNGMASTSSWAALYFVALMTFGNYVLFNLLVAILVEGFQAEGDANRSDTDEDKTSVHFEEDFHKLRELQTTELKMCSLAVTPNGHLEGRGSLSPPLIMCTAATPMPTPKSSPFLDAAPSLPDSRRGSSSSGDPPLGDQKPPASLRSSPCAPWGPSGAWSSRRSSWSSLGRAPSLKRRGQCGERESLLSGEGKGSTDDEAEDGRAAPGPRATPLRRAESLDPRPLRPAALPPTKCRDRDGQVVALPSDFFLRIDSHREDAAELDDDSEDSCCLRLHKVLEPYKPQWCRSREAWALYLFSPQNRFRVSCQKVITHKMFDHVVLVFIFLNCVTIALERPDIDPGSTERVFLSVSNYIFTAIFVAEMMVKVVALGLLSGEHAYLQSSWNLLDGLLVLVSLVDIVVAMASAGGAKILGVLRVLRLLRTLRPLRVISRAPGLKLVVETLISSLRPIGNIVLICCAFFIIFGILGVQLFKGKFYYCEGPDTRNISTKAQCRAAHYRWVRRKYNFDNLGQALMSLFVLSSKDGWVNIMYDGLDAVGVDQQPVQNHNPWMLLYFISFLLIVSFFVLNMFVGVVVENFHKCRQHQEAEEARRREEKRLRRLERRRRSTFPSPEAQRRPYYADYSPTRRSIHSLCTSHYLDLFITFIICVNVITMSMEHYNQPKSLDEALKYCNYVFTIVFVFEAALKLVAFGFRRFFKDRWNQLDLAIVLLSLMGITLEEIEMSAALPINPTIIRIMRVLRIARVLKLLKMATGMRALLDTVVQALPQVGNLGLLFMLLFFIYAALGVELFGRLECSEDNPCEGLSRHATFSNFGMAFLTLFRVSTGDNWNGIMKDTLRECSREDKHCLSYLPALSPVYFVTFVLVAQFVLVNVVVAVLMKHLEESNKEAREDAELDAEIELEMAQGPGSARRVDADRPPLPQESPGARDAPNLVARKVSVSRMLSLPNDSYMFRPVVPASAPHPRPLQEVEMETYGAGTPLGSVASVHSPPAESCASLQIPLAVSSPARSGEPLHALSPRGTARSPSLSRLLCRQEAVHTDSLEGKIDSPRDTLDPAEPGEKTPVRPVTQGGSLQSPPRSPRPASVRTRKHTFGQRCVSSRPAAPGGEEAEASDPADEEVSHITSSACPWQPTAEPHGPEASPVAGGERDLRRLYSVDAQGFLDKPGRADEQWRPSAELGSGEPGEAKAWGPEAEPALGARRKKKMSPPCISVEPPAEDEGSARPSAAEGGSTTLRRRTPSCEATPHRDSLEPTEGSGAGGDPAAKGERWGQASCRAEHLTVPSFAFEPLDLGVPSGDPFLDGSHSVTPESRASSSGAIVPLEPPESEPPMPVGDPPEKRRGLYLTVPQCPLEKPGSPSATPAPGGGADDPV
Description: as §1

[4] = molecular target: CAv1.2 (Homo sapiens, UniProt Q13936); assay: FLIPR data, CAv1.2 channel blocking (Table 6); settings: for CAv1.2 IC50 Ratio closed/inact.: ratio closed/inactivated IC50
[5] = closed state, read-out: CAv2.2 IC50 Closed
[6] = inactivated state, read-out: CAv2.2 IC50 Inact.
[7] = CAv3.2, closed state, read-out: CAv3.2 IC50 Closed
[8] = CAv3.2, inactivated state, read-out: CAv3.2 IC50 Inact.
[9] = closed state, read-out: CAv1.2 IC50 Closed
[10] = inactivated state, read-out: CAv1.2 IC50 Inact.

| SMILES | IC50 [1, 5] [µM] | IC50 [1, 6] [µM] | CAv2.2 IC50 Ratio closed/inact. [1] | IC50 [2] [µM] | IC50 [3, 7] [µM] | IC50 [3, 8] [µM] | CAv3.2 IC50 Ratio closed/inact. [3] | IC50 [4, 9] [µM] | IC50 [4, 10] [µM] | CAv1.2 IC50 Ratio closed/inact. [4] |
| --- | --- | --- | --- | --- | --- | --- | --- | --- | --- | --- |
| O=S(=O)(c1cc(F)cc(C(F)(F)F)c1)[C@H]1C[C@@H](CNc2ccnc(C(F)(F)F)n2)C1 [Compound 651] | 10 | 3.26 | 3.1 | 9.04 | 6.41 | 3.59 | 1.8 | 9.21 | 3.86 | 2.4 |
| CC(C)([C@H]1C[C@@H](NC(=O)CC2(N)CCCCC2)C1)S(=O)(=O)c1cc(F)cc(C(F)(F)F)c1 [Compound 653] | 10 | 1.36 | 7.4 | ≥ 10 | – | 10 | – | – | ≥ 10 | – |
| CNC1(CC(=O)NCc2ccc(S(=O)(=O)c3cccc(C(F)(F)F)c3)cc2)CCCCC1 [Compound 660] | 3.56 | 0.61 | 5.8 | ≥ 10 | ≥ 10 | 10 | 1 | 7.48 | 4.93 | 1.5 |
| CC(C)([C@H]1C[C@H](NS(=O)(=O)c2ccc(C(F)(F)F)cc2)C1)S(=O)(=O)c1cccc(C(F)(F)F)c1 [Compound 663] | 9.19 | 0.87 | 10.6 | 2.01 | 2.94 | 1.53 | 1.9 | ≥ 10 | 2.98 | 3.4 |
| CC(C)([C@H]1C[C@H](NS(=O)(=O)c2ccc(F)c(Cl)c2)C1)S(=O)(=O)c1cccc(C(F)(F)F)c1 [Compound 664] | 8.05 | 1.06 | 7.6 | 2.93 | 3.08 | 2.79 | 1.1 | ≥ 10 | 3.67 | 2.7 |
| CC(C)([C@H]1C[C@H](NS(=O)(=O)c2ccc(Cl)c(F)c2)C1)S(=O)(=O)c1cccc(C(F)(F)F)c1 [Compound 665] | 7.26 | 0.8 | 9.1 | 2.77 | 3.03 | 2.66 | 1.1 | 8.94 | 4.21 | 2.1 |
| CC(C)([C@H]1C[C@H](NS(=O)(=O)c2ccc(C(F)(F)F)cc2Cl)C1)S(=O)(=O)c1cccc(C(F)(F)F)c1 [Compound 666] | 10 | 0.65 | 15.4 | 1.59 | 2.16 | 2.17 | 1 | ≥ 10 | 2.29 | 4.4 |
| CC(C)([C@H]1C[C@H](NS(=O)(=O)c2ccc(F)c(C(F)(F)F)c2)C1)S(=O)(=O)c1cccc(C(F)(F)F)c1 [Compound 667] | 10 | 1.08 | 9.3 | 2.5 | 2.7 | 2.16 | 1.3 | 7.76 | 2.56 | 3 |
| CC(C)([C@H]1C[C@H](NS(=O)(=O)c2ccc(C(F)(F)F)nc2)C1)S(=O)(=O)c1cccc(C(F)(F)F)c1 [Compound 668] | 7.34 | 0.79 | 9.3 | 2.95 | 3.83 | 2.92 | 1.3 | ≥ 10 | 3.73 | 2.7 |
| CC(C)([C@H]1C[C@H](NS(=O)(=O)c2ccc(OC(F)(F)F)cc2)C1)S(=O)(=O)c1cccc(C(F)(F)F)c1 [Compound 669] | 7.9 | 0.96 | 8.2 | 2.74 | 2.65 | 2.55 | 1 | ≥ 10 | 3.33 | 3 |
| CC(C)([C@H]1C[C@H](NC(=O)c2cncc(C(F)(F)F)c2)C1)S(=O)(=O)c1cccc(C(F)(F)F)c1 [Compound 671] | 5.47 | 0.28 | 19.5 | 9.28 | 5.73 | 6.36 | 0.9 | ≥ 10 | 7.82 | 1.3 |
| CC(C)([C@H]1C[C@H](NC(=O)c2ccnc(C(F)(F)F)c2)C1)S(=O)(=O)c1cccc(C(F)(F)F)c1 [Compound 672] | 7.42 | 0.31 | 23.9 | 5.05 | 5.93 | 4.05 | 1.5 | ≥ 10 | 3.3 | 3 |
| CC(C)([C@H]1C[C@H](NC(=O)c2ccc(Cl)cn2)C1)S(=O)(=O)c1cccc(C(F)(F)F)c1 [Compound 673] | 1.88 | 0.2 | 9.4 | 6.56 | 5.37 | 4.33 | 1.2 | ≥ 10 | 4.57 | 2.2 |
| CC(C)([C@H]1C[C@H](NC(=O)c2ccc(OCC(F)(F)F)nc2)C1)S(=O)(=O)c1cccc(C(F)(F)F)c1 [Compound 674] | 3.01 | 0.29 | 10.4 | 9.43 | 2.74 | 2.39 | 1.1 | 7.73 | 1.74 | 4.4 |
| CC(C)([C@H]1C[C@H](NC(=O)c2ccc(C(F)(F)F)nc2)C1)S(=O)(=O)c1cccc(C(F)(F)F)c1 [Compound 675] | 8.63 | 0.49 | 17.6 | ≥ 10 | 7.76 | 6.23 | 1.2 | ≥ 10 | 5.99 | 1.7 |
| CC(C)([C@H]1C[C@H](NC(=O)c2ccc(C(F)(F)F)cn2)C1)S(=O)(=O)c1cccc(C(F)(F)F)c1 [Compound 676] | 1.85 | 0.16 | 11.6 | 3.87 | 4.27 | 3.79 | 1.1 | 7.96 | 3.25 | 2.4 |
| CC(C)([C@H]1C[C@H](NC(=O)c2ccc(C(F)(F)F)cc2)C1)S(=O)(=O)c1cccc(C(F)(F)F)c1 [Compound 677] | 2.86 | 0.22 | 13 | 2.79 | 1.78 | 1.82 | 1 | 6.35 | 2.23 | 2.8 |
